Data: patent publication US8796466B2, “Hepatitis C virus inhibitors” (Bristol-Myers Squibb Company, priority 2009, dated 2014)
Read-outs that look alike come from different tables or passages of the source.

Test system: HCV 1b genotype
Assay: HCV Replicon assay (HCV 1b genotype)
Format: cell-based, Hepatitis C virus
Settings: Hepatitis C virus, HCV 1b genotype replicon
Summary of the method: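 HCV-neo replicon cells, wild-type plus lines carrying NS5A-region mutations, were exposed to compound; luciferase-reporter replicon variants were also used.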

[1] = Effective 50% inhibitory concentration, read-out: 1b EC50
[2] = class symbol, read-out: Range (EC50 values against HCV 1b)

Row | Compound | EC50 [1] | EC50 [2]
1 | O=C([C@H](O)c1ccccc1)N1CCC[C@H]1c1nc(-c2ccc(Oc3ccc(-c4cnc([C@@H]5CCCN5C(=O)[C@H](O)c5ccccc5)[nH]4)cc3)cc2)c[nH]1 [OL-2, (1R)-2-((2S)-2-(4-(4-(4-(2-((2S)-1-((2R)-2-hydroxy-2-phenylacetyl)-2-pyrrolidinyl)-1H-imidazol-5-yl)phenoxy)phenyl)-1H-imidazol-2-yl)-1-pyrrolidinyl)-2-oxo-1-phenylethanol] | 9.1 nM | 1 to 9.9 nM
2 | COC(=O)N[C@@H](C(=O)N1CCC[C@H]1c1nc(-c2ccc(Oc3ccc(-c4c[nH]c([C@@H]5CCCN5C(=O)[C@H](NC(=O)OC)c5ccccc5)n4)cc3)cc2)c[nH]1)c1ccccc1 [OL-3, dimethyl (oxybis(4,1-phenylene-1H-imidazole-4,2-diyl(2S)-2,1-pyrrolidinediyl((1R)-2-oxo-1-phenyl-2,1-ethanediyl)))biscarbamate] | – | 1 to 9.9 nM
3 | CN(C)[C@@H](C(=O)N1CCC[C@H]1c1ncc(-c2ccc(Oc3cccc(-c4cnc([C@@H]5CCCN5C(=O)[C@@H](c5ccccc5)N(C)C)[nH]4)c3)cc2)[nH]1)c1ccccc1 [OL-4, (1R)-2-((2S)-2-(4-(3-(4-(2-((2S)-1-((2R)-2-(dimethylamino)-2-phenylacetyl)-2-pyrrolidinyl)-1H-imidazol-4-yl)phenoxy)phenyl)-1H-imidazol-2-yl)-1-pyrrolidinyl)-N,N-dimethyl-2-oxo-1-phenylethanamine] | 0.07 nM | 0.002 to 0.099 nM
4 | O=C([C@H](O)c1ccccc1)N1CCC[C@H]1c1nc(-c2ccc(Oc3cccc(-c4c[nH]c([C@@H]5CCCN5C(=O)[C@H](O)c5ccccc5)n4)c3)cc2)c[nH]1 [OL-5, (1R)-2-((2S)-2-(4-(3-(4-(2-((2S)-1-((2R)-2-hydroxy-2-phenylacetyl)-2-pyrrolidinyl)-1H-imidazol-4-yl)phenoxy)phenyl)-1H-imidazol-2-yl)-1-pyrrolidinyl)-2-oxo-1-phenylethanol] | 80 nM | 10 to 350 nM
5 | COC(=O)N[C@@H](C(=O)N1CCC[C@H]1c1nc(-c2ccc(Oc3cccc(-c4c[nH]c([C@@H]5CCCN5C(=O)[C@H](NC(=O)OC)c5ccccc5)n4)c3)cc2)c[nH]1)c1ccccc1 [OL-6, methyl ((1R)-2-((2S)-2-(4-(3-(4-(2-((2S)-1-((2R)-2-((methoxycarbonyl)amino)-2-phenylacetyl)-2-pyrrolidinyl)-1H-imidazol-4-yl)phenoxy)phenyl)-1H-imidazol-2-yl)-1-pyrrolidinyl)-2-oxo-1-phenylethyl)carbamate] | – | 0.002 to 0.099 nM
6 | CN(C)[C@@H](C(=O)N1CCC[C@H]1c1ncc(-c2ccc(COc3ccc(-c4cnc([C@@H]5CCCN5C(=O)[C@@H](c5ccccc5)N(C)C)[nH]4)cc3)cc2)[nH]1)c1ccccc1 [OL-7, (1R)-2-((2S)-2-(4-(4-((4-(2-((2S)-1-((2R)-2-(dimethylamino)-2-phenylacetyl)-2-pyrrolidinyl)-1H-imidazol-4-yl)benzyl)oxy)phenyl)-1H-imidazol-2-yl)-1-pyrrolidinyl)-N,N-dimethyl-2-oxo-1-phenylethanamine] | – | 0.002 to 0.099 nM
7 | COC(=O)N[C@@H](C(=O)N1CCC[C@H]1c1nc(-c2ccc(COc3ccc(-c4c[nH]c([C@@H]5CCCN5C(=O)[C@H](NC(=O)OC)c5ccccc5)n4)cc3)cc2)c[nH]1)c1ccccc1 [OL-8, methyl ((1R)-2-((2S)-2-(4-(4-((4-(2-((2S)-1-((2R)-2-((methoxycarbonyl)amino)-2-phenylacetyl)-2-pyrrolidinyl)-1H-imidazol-4-yl)benzyl)oxy)phenyl)-1H-imidazol-2-yl)-1-pyrrolidinyl)-2-oxo-1-phenylethyl)carbamate] | – | 0.002 to 0.099 nM
8 | CN(C)[C@@H](C(=O)N1CCC[C@H]1c1ncc(-c2ccc(CCc3ccc(-c4cnc([C@@H]5CCCN5C(=O)[C@@H](c5ccccc5)N(C)C)[nH]4)cc3)cc2)[nH]1)c1ccccc1 [OL-9, (1R)-2-((2S)-2-(4-(4-(2-(4-(2-((2S)-1-((2R)-2-(dimethylamino)-2-phenylacetyl)-2-pyrrolidinyl)-1H-imidazol-5-yl)phenyl)ethyl)phenyl)-1H-imidazol-2-yl)-1-pyrrolidinyl)-N,N-dimethyl-2-oxo-1-phenylethanamine] | – | 0.002 to 0.099 nM
9 | O=C([C@H](O)c1ccccc1)N1CCC[C@H]1c1nc(-c2ccc(CCc3ccc(-c4c[nH]c([C@@H]5CCCN5C(=O)[C@H](O)c5ccccc5)n4)cc3)cc2)c[nH]1 [OL-10, (1R,1′R)-2,2′-(1,2-ethanediylbis(4,1-phenylene-1H-imidazole-4,2-diyl(2S)-2,1-pyrrolidinediyl))bis(2-oxo-1-phenylethanol)] | – | 0.002 to 0.099 nM
10 | COC(=O)N[C@@H](C(=O)N1CCC[C@H]1c1nc(-c2ccc(CCc3ccc(-c4c[nH]c([C@@H]5CCCN5C(=O)[C@H](NC(=O)OC)c5ccccc5)n4)cc3)cc2)c[nH]1)c1ccccc1 [OL-11, dimethyl (1,2-ethanediylbis(4,1-phenylene-1H-imidazole-4,2-diyl(2S)-2,1-pyrrolidinediyl((1R)-2-oxo-1-phenyl-2,1-ethanediyl)))biscarbamate] | – | 0.002 to 0.099 nM
11 | CCNC(=O)N[C@@H](C(=O)N1CCC[C@H]1c1nc(-c2ccc(CCc3ccc(-c4c[nH]c([C@@H]5CCCN5C(=O)[C@H](NC(=O)NCC)c5ccccc5)n4)cc3)cc2)c[nH]1)c1ccccc1 [OL-12, N′,N′″-(1,2-ethanediylbis(4,1-phenylene-1H-imidazole-4,2-diyl(2S)-2,1-pyrrolidinediyl((1R)-2-oxo-1-phenyl-2,1-ethanediyl)))bis(1-ethylurea)] | – | 0.002 to 0.099 nM
12 | O=C(NC1CCCC1)N[C@@H](C(=O)N1CCC[C@H]1c1nc(-c2ccc(CCc3ccc(-c4cnc([C@@H]5CCCN5C(=O)[C@H](NC(=O)NC5CCCC5)c5ccccc5)[nH]4)cc3)cc2)c[nH]1)c1ccccc1 [OL-13, 1-cyclopentyl-3-((1R)-2-((2S)-2-(4-(4-(2-(4-(2-((2S)-1-((2R)-2-((cyclopentylcarbamoyl)amino)-2-phenylacetyl)-2-pyrrolidinyl)-1H-imidazol-5-yl)phenyl)ethyl)phenyl)-1H-imidazol-2-yl)-1-pyrrolidinyl)-2-oxo-1-phenylethyl)urea] | – | 0.002 to 0.099 nM
13 | CN(C)[C@@H](C(=O)N1CCC[C@H]1c1ncc(-c2ccc(COCc3ccc(-c4cnc([C@@H]5CCCN5C(=O)[C@@H](c5ccccc5)N(C)C)[nH]4)cc3)cc2)[nH]1)c1ccccc1 [OL-14, (1R)-2-((2S)-2-(4-(4-(((4-(2-((2S)-1-((2R)-2-(dimethylamino)-2-phenylacetyl)-2-pyrrolidinyl)-1H-imidazol-5-yl)benzyl)oxy)methyl)phenyl)-1H-imidazol-2-yl)-1-pyrrolidinyl)-N,N-dimethyl-2-oxo-1-phenylethanamine] | – | 0.1 to 0.99 nM
14 | O=C([C@H](O)c1ccccc1)N1CCC[C@H]1c1nc(-c2ccc(COCc3ccc(-c4cnc([C@@H]5CCCN5C(=O)[C@H](O)c5ccccc5)[nH]4)cc3)cc2)c[nH]1 [OL-15, (1R)-2-((2S)-2-(4-(4-(((4-(2-((2S)-1-((2R)-2-hydroxy-2-phenylacetyl)-2-pyrrolidinyl)-1H-imidazol-5-yl)benzyl)oxy)methyl)phenyl)-1H-imidazol-2-yl)-1-pyrrolidinyl)-2-oxo-1-phenylethanol] | 1.1 nM | 1 to 9.9 nM
15 | COC(=O)N[C@@H](C(=O)N1CCC[C@H]1c1nc(-c2ccc(COCc3ccc(-c4c[nH]c([C@@H]5CCCN5C(=O)[C@H](NC(=O)OC)c5ccccc5)n4)cc3)cc2)c[nH]1)c1ccccc1 [OL-16, dimethyl (oxybis(methylene-4,1-phenylene-1H-imidazole-4,2-diyl(2S)-2,1-pyrrolidinediyl((1R)-2-oxo-1-phenyl-2,1-ethanediyl)))biscarbamate] | – | 0.002 to 0.099 nM
16 | CNC(=O)N[C@@H](C(=O)N1CCC[C@H]1c1nc(-c2ccc(COCc3ccc(-c4cnc([C@@H]5CCCN5C(=O)[C@H](NC(=O)NC)c5ccccc5)[nH]4)cc3)cc2)c[nH]1)c1ccccc1 [OL-17, 1-methyl-3-((1R)-2-((2S)-2-(4-(4-(((4-(2-((2S)-1-((2R)-2-((methylcarbamoyl)amino)-2-phenylacetyl)-2-pyrrolidinyl)-1H-imidazol-5-yl)benzyl)oxy)methyl)phenyl)-1H-imidazol-2-yl)-1-pyrrolidinyl)-2-oxo-1-phenylethyl)urea] | – | 0.002 to 0.099 nM
17 | CCNC(=O)N[C@@H](C(=O)N1CCC[C@H]1c1nc(-c2ccc(COCc3ccc(-c4cnc([C@@H]5CCCN5C(=O)[C@H](NC(=O)NCC)c5ccccc5)[nH]4)cc3)cc2)c[nH]1)c1ccccc1 [OL-18, 1-ethyl-3-((1R)-2-((2S)-2-(4-(4-(((4-(2-((2S)-1-((2R)-2-((ethylcarbamoyl)amino)-2-phenylacetyl)-2-pyrrolidinyl)-1H-imidazol-5-yl)benzyl)oxy)methyl)phenyl)-1H-imidazol-2-yl)-1-pyrrolidinyl)-2-oxo-1-phenylethyl)urea] | – | 0.002 to 0.099 nM
18 | O=C(NC1CCCC1)N[C@@H](C(=O)N1CCC[C@H]1c1nc(-c2ccc(COCc3ccc(-c4cnc([C@@H]5CCCN5C(=O)[C@H](NC(=O)NC5CCCC5)c5ccccc5)[nH]4)cc3)cc2)c[nH]1)c1ccccc1 [OL-19, 1-cyclopentyl-3-((1R)-2-((2S)-2-(4-(4-(((4-(2-((2S)-1-((2R)-2-((cyclopentylcarbamoyl)amino)-2-phenylacetyl)-2-pyrrolidinyl)-1H-imidazol-5-yl)benzyl)oxy)methyl)phenyl)-1H-imidazol-2-yl)-1-pyrrolidinyl)-2-oxo-1-phenylethyl)urea] | – | 1 to 9.9 nM
19 | CN(C)[C@@H](C(=O)N1CCC[C@H]1c1ncc(-c2ccc(COCc3cccc(-c4cnc([C@@H]5CCCN5C(=O)[C@@H](c5ccccc5)N(C)C)[nH]4)c3)cc2)[nH]1)c1ccccc1 [OL-20, (1R)-2-((2S)-2-(4-(3-(((4-(2-((2S)-1-((2R)-2-(dimethylamino)-2-phenylacetyl)-2-pyrrolidinyl)-1H-imidazol-4-yl)benzyl)oxy)methyl)phenyl)-1H-imidazol-2-yl)-1-pyrrolidinyl)-N,N-dimethyl-2-oxo-1-phenylethanamine] | – | 0.1 to 0.99 nM
